# Laboratory results published in patent publication US5658898A, “Intravenous solutions for a derivative of staurosporine” (CIBA GEIGY Corporation, priority 1994, dated 1997).
# How the values were obtained:
# [1] = cited from earlier work
# [2] = water solubility; format: physicochemical; details: room temperature
SMILES,water-solubility (in words) [1],solubility [2] [µg/mL]
CN[C@@H]1C[C@H]2O[C@@](C)([C@@H]1OC)n1c3ccccc3c3c4c(c5c6ccccc6n2c5c31)C(=O)NC4 [staurosporin],low water-solubility,–
CO[C@@H]1[C@H](N(C)C(=O)c2ccccc2)C[C@H]2O[C@]1(C)n1c3ccccc3c3c4c(c5c6ccccc6n2c5c31)C(=O)NC4 [N-benzoyl-staurosporin],–,< 0.1
